In the Kinase Knowledgebase extract (Sharma et al. 2016) one finds IC50 data, which are given here for 18 compounds.

This assay has as its target PIK3CD (Human) (UniProt O00329). The experiment in a line: Enzyme Assay.

Each structure is given as a SMILES string.

A word on the IC50: it is the concentration that inhibits the measured activity by half. A high value points to a need for much substance.

Chain of PIK3CD (Human) (O00329 whole entry, looked up): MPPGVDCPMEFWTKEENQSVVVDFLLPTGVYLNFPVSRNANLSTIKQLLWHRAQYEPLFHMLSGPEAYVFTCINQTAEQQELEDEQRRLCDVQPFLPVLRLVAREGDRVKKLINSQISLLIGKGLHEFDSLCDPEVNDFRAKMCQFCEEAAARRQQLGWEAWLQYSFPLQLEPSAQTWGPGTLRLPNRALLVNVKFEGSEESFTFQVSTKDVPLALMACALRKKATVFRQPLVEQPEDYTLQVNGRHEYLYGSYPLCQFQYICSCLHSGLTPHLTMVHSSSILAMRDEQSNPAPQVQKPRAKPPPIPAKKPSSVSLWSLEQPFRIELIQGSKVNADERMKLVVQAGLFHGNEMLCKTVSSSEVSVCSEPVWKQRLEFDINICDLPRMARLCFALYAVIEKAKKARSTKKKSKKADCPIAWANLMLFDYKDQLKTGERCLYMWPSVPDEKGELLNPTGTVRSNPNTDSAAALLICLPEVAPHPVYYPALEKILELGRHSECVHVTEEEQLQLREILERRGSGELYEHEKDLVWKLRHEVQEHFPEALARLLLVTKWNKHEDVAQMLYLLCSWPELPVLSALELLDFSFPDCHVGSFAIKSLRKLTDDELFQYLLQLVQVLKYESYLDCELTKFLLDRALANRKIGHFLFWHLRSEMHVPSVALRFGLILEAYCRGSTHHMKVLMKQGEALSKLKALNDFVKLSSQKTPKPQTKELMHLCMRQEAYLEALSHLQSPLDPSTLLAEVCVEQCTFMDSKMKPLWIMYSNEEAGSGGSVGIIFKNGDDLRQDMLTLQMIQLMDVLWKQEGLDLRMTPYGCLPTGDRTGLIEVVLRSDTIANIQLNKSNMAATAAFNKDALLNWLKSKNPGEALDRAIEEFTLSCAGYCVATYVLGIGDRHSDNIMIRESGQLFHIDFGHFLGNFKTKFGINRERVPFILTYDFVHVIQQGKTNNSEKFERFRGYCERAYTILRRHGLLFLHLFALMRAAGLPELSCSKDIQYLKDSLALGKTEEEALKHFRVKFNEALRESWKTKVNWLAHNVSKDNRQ

As for `C[C@H](Nc1nc(N)nc(N)c1C#N)c1nc2c(F)ccc(Cl)c2c(=O)n1-c1cc(F)cc(F)c1`, the IC50 is ≤ 1 nM.

With `CC[C@H](Nc1nc(N)nc(N)c1C#N)c1nc2cccc(Cl)c2c(=O)n1-c1cc(F)cc(F)c1`, the IC50 fell in the range of 1 to 10 nM.

`Cc1ccc(Cl)c2c(=O)n(-c3cc(F)cc(F)c3)c([C@H](C)Nc3nc(N)nc(N)c3C#N)nc12`: the IC50 is 1 to 10 nM.

For `C[C@H](Nc1nc(N)nc(N)c1C#N)c1nc2cccc(F)c2c(=O)n1-c1cc(Cl)cc(Cl)c1`, the IC50 fell in the range of 10 to 50 nM.

As to `C[C@H](Nc1nc(N)nc(N)c1C#N)c1nc2cccc(F)c2c(=O)n1-c1cccc(C(F)F)c1`, the IC50 is 1 to 10 nM.

Take `C[C@H](Nc1nc(N)nc(N)c1C#N)c1nc2cccc(S(C)(=O)=O)c2c(=O)n1-c1cc(F)cc(F)c1`: the IC50 was in the range of 1 to 10 nM.

Consider `C[C@H](Nc1nc(N)nc(N)c1C#N)c1nc2cccc(F)c2c(=O)n1-c1cccc(C#N)c1`, for which the IC50 was 10 to 50 nM.

Take `CC[C@H](Nc1nc(N)nc(N)c1C#N)c1nc2c(F)ccc(F)c2c(=O)n1-c1cc(F)cc(F)c1`: the IC50 lay in the range of 10 to 50 nM.

Compound `C[C@H](Nc1nc(N)nc(N)c1C#N)c1nc2cccc(Cl)c2c(=O)n1-c1cc(C(F)F)cc(C(F)F)c1` came in with an IC50 of 1 to 10 nM.

In turn, `C[C@H](Nc1nc(N)nc(N)c1C#N)c1nc2cccc(Cl)c2c(=O)n1-c1cc(F)cc(OC(F)(F)F)c1` registered an IC50 of 1 to 10 nM.

With `C[C@H](Nc1nc(N)nc(N)c1C#N)c1nc2cccc(F)c2c(=O)n1-c1cc(F)cc(Cl)c1`, the concentration for half-maximal inhibition (IC50) is 10 to 50 nM.

In the case of `C[C@H](Nc1nc(N)nc(N)c1C#N)c1nc2c(C(F)F)cccc2c(=O)n1-c1cc(F)cc(F)c1`, the IC50 was 10 to 50 nM.

In the case of `Cc1cccc2c(=O)n(-c3cc(F)cc(F)c3)c([C@H](C)Nc3nc(N)nc(N)c3C#N)nc12`, the concentration for half-maximal inhibition (IC50) lay within 1 to 10 nM.

`C[C@H](Nc1nc(N)nc(N)c1C(N)=O)c1nc2cccc(Cl)c2c(=O)n1-c1ccccc1`: the IC50 is ≤ 1 nM.

Regarding `C[C@H](Nc1nc(N)nc(N)c1C#N)c1nc2cccc(O)c2c(=O)n1-c1ccccc1`, the IC50 was ≤ 1 nM.

As to `Cc1ccc(F)c2c(=O)n(-c3cc(F)cc(F)c3)c([C@H](C)Nc3nc(N)nc(N)c3C#N)nc12`, the IC50 is 1 to 10 nM.

`C[C@H](Nc1nc(N)nc(N)c1C#N)c1nc2cccc(F)c2c(=O)n1-c1cc(F)cc(C#N)c1`: the half-maximal inhibitory concentration (IC50) lay in the range of 10 to 50 nM.

With `CC[C@H](Nc1nc(N)nc(N)c1C#N)c1nc2cccc(C)c2c(=O)n1-c1cc(F)cc(F)c1`, the IC50 was ≤ 1 nM.
